Assay [1] has as its target T1, αvβ3 receptor (Homo sapiens, UniProt P05106+P06756).
T1 construct: αvβ3 from human A375 cells were purified according to a procedure described by Wong et al; endogenous in cells; host or cells: human A375 cells; receptor purified from the cells, detergent-solubilised
The experiment in a line: Binding to the αvβ3 receptor (echistatin displacement, WGA SPA beads). The settings on record: αvβ3 purified from human A375 cells, labelled echistatin, read-out: avb3 IC50. The protocol: a) Binding to the αvβ3 receptor
10 µl αvβ3 (5 ng) in TBS pH 7.6, 2 mM CaCl2, 1mM MgCl2, 1% n/octylglucopyranoside; 10 µl of the substance to be tested in TBS pH 7.6, 0.1 % dimethylsulfoxide (DMSO), and 45 µl TBS pH 7.6, 2 mM CaCl2, 1 mM MgCl2, 1 mM MnCl2 were each incubated for 1 h at room temperature.

Assay [2] has as its system Smooth muscle cells. Description: Smooth muscle cell (SMC) migration test (horizontal, vitronectin-coated plates). In kind it is cell-based, humans or rats. The settings on record: migration on vitronectin, 24 hours at 37°C; human or rat cells not specified. As for the experimental part:
b) Smooth muscle cell (SMC) migration test
Smooth muscle cells from humans or rats were used. The migration of the cells was determined in a horizontal measuring arrangement (Falcon).
The horizontal migration was determined in 6-well plates coated with vitronectin (1 µg/cm^2). The cells were suspended in a medium ([…]-rat smooth muscle cells or MCDB 131 with 0.2% BSA-human smooth muscle cells), inoculated and allowed to grow to confluence. Half of the smooth muscle cell lawn was then scraped off, and the cells were treated with different concentrations of the test compounds. The mixtures were incubated for 24 hours at 37°C in the presence of 5% CO2. After the incubation, the smooth muscle cell migration was determined by measurement of the migration distance and the cell density of the migrated cells.

The target in assay [3] is αvβ5 receptor (Homo sapiens, UniProt P06756+P18084). The settings on record: disclosed in WO 98/00395; cited from earlier work.
Sequence of αvβ5 receptor (P06756 31-889 limits assumed): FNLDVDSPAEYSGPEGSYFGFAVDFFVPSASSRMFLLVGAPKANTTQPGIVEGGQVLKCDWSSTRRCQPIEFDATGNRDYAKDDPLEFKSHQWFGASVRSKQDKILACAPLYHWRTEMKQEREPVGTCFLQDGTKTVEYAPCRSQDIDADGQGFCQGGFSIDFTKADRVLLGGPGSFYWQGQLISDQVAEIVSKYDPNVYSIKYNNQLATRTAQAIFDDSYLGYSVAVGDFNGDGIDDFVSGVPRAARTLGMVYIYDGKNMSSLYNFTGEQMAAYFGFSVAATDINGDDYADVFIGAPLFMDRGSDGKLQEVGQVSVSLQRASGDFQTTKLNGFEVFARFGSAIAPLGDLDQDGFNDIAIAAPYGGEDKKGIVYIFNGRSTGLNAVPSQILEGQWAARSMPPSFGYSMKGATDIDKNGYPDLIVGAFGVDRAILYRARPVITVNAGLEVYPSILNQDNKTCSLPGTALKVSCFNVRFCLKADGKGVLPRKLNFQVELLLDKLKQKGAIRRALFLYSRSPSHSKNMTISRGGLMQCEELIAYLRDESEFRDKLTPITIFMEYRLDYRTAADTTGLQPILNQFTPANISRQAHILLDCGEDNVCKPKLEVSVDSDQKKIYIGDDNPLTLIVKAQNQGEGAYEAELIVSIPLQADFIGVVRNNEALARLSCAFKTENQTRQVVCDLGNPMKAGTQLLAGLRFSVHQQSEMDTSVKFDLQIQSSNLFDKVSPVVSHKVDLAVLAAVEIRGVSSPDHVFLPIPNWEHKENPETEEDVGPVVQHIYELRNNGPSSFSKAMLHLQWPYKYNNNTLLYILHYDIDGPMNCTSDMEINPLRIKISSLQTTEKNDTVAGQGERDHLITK
Sequence of αvβ5 receptor (P06756 891-1048 partner limits assumed): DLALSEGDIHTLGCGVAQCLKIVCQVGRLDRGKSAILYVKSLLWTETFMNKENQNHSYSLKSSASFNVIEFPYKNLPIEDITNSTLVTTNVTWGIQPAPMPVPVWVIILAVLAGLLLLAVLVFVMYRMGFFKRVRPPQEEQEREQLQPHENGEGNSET
Sequence of αvβ5 receptor (P18084 24-799): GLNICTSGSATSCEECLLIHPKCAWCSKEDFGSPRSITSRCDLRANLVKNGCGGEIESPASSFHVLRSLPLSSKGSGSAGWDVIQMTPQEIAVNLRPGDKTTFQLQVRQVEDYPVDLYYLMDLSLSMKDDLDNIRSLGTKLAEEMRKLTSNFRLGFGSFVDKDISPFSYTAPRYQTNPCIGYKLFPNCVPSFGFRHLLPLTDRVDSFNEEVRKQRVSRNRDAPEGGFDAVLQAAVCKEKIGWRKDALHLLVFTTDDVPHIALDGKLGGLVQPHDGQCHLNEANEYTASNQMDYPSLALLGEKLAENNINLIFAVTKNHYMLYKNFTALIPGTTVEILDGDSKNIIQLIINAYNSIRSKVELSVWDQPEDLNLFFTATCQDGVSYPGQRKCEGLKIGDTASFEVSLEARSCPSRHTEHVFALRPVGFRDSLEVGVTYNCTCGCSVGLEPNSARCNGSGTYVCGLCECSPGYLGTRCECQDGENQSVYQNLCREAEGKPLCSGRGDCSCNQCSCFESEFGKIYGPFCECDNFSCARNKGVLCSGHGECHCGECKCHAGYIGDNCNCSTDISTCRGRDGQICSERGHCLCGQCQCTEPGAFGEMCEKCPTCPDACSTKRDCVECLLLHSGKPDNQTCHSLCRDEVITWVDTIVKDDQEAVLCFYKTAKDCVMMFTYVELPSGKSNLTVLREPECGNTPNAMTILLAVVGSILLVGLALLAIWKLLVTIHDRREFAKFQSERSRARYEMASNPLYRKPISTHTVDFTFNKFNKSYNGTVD

T1 sequence (P06756 31-889 limits assumed): as the sequence (P06756 31-889 limits assumed) above
T1 sequence (P06756 891-1048 partner limits assumed): as the sequence (P06756 891-1048 partner limits assumed) above
T1 sequence (P05106 27-788): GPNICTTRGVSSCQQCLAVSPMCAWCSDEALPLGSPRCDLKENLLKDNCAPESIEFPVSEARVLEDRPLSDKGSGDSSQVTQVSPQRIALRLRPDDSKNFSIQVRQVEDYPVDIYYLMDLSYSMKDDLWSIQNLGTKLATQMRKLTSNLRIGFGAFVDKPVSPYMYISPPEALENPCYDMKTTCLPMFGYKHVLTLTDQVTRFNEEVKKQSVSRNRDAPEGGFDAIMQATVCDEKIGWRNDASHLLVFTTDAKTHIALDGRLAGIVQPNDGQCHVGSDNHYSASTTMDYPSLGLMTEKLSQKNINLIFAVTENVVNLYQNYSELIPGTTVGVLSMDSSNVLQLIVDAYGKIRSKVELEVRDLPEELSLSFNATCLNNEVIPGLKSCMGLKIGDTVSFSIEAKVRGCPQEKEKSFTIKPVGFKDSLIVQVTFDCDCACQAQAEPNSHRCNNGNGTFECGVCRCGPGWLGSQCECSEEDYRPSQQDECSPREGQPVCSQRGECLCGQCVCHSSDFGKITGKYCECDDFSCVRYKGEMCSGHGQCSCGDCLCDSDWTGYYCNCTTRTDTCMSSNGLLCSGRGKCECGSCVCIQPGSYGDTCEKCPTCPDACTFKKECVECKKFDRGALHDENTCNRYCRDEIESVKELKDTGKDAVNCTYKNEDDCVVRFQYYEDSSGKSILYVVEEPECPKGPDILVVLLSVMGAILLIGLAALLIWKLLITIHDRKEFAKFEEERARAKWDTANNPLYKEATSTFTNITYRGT

The IC50 is the point on the concentration scale where inhibition reaches its midpoint. With `Cc1cc(C)c(S(=O)(=O)NC(Cc2ccc(-c3cccc(NC(=O)NCc4cccnc4)c3)cc2)C(=O)O)c(C)c1` (racemic) [Example 1.5, (2R,S)-3-[3'-(3-(Pyridin-3-yl-methylureido)-biphenyl-4-yl]-2-[2,4,6-trimethylbenzenesulfonylamino]-propanoic acid], the results for the IC50 in assay [1] and in assay [2] were 5 nM and 480 nM, respectively.

With `Cc1cc(C)c(S(=O)(=O)NC(Cc2ccc(-c3cccc(NC4=NCCN4)c3)cc2)C(=O)O)c(C)c1` (racemic) [Example 7.1, (2R,S)-3-[3'-(4,5-Dihydro-1H-Imidazol-2-ylamino)-biphenyl-4-yl]-2-(2,4,6-trimethyl-benzenesulfonylamino)-propanoic acid], the IC50 in assay [1] worked out at 1.2 nM.

For the compound `O=C(O)CC(NS(=O)(=O)c1cccc(-c2cccc(CNCc3nc4ccccc4[nH]3)c2)c1)c1ccccc1` (racemic) [Example 8.1, (3R,S)-3-(3'-{[(1H-Benzoimidazol-2-ylmethyl)-amino]-methyl}-biphenyl-3-sulfonylamino)-3-phenyl-propanoic acid], the IC50 in assay [2] was 300 nM.

Regarding `CC1(C)C2CCC1(CS(=O)(=O)NC(Cc1ccc(OCCCC(=O)NC(=N)N)cc1)C(=O)O)C(=O)C2` (centres unmarked) [(I)], the concentration for half-maximal inhibition (IC50) in assay [3] is 0.16 nM.

As for `Cc1cc(C)c(S(=O)(=O)N[C@@H](Cc2ccc(-c3cccc(NC(=O)NC4CC4)c3)cc2)C(=O)O)c(C)c1` [Example 1.13, (2S)-3-[3'-(3-Cyclopropyl-ureido)-biphenyl-4-yl]-2-(2,4,6-trimethyl-benzenesulfonylamino)-propanoic acid], the IC50 is 1.2 nM in assay [1] and 390 nM in assay [2].

For `CC1(C)C2CCC1(CS(=O)(=O)NC(Cc1ccc(-c3cccc(NC(=O)Nc4cccnc4)c3)cc1)C(=O)O)C(=O)C2` [Example 1.73, (2S)-3-[3'-(3-Pyridin-3-yl-ureido)-biphenyl-4-yl]-2-[(S)-campher-10-yl-sulfonylamino]-propanoic acid], the IC50 in assay [2] lay within 3 to 40 nM.

Regarding `O=C(O)CNS(=O)(=O)c1cccc(-c2cccc(NC(=O)NCc3ccccn3)c2)c1` [Example 4.1, [3'-(3-Pyridin-2-ylmethyl-ureido)-biphenyl-3-sulfonylamino]-acetic acid], the IC50 in assay [1] was 33 nM; in assay [2], 300 nM.

In the case of `Cc1cc(C)c(S(=O)(=O)N[C@@H](Cc2ccc(-c3cccc(CNc4ccccn4)c3)cc2)C(=O)O)c(C)c1` [Example 18.1.3, (2S)-2-Mesitylsulfonylamino-3-{3'-[(2-pyridinylamino)-methyl][1,1'-biphenyl]-4-yl}-propanoic acid], the values for the IC50 in assay [1] and in assay [2] were 9 nM and 35 to 80 nM, respectively.

As for `Cc1cc(C)c(S(=O)(=O)N[C@@H](Cc2ccc(-c3cccc(NC(=O)c4ncc[nH]4)c3)cc2)C(=O)O)c(C)c1` [Example 19.1.2, (2S)-3-{3'-[(1H-imidazol-2-ylcarbonyl)amino][1,1'-biphenyl]-4-yl}-2-[(mesitylsulfonyl)amino]-propanoic acid], the results for the IC50 in assay [1] and in assay [2] were 1 nM and 80 nM, respectively.

Source of the values: EP1140809B1, “NEW BIPHENYL AND BIPHENYL-ANALOGOUS COMPOUNDS AS INTEGRIN ANTAGONISTS” (Bayer HealthCare AG, priority 1998, dated 2000).
